The test relates to NK92 cells. The test is described as follows: Dependence of Aleurites fordii extract-induced IFN-γ production on NF-κB/PKC signaling. The class given is cell-based, human. Particulars: NK92 cells treated with inhibitor along with Aleurites fordii extract, FIG. 9.

The structures appear in SMILES notation.

For `CC(=O)c1c(O)c(C)c(O)c(Cc2c(O)c3c(c(C(=O)/C=C/c4ccccc4)c2O)OC(C)(C)C=C3)c1O` [rotterin], the “induction of IFN-γ production by the Aleurites fordii extract” value is reported as “reduced”.
